# System: crypt cells of the colon of HFA mice
# Experiment: DNA chip showing specific responses to human intestinal normal bacterial flora, colistin-treated HFA mice
# Settings: 500 μg/Ml in drinking water three weeks
# [1] = colon crypt cells, then halted one week
# From the text: The colon is collected and the gene expression of crypt cells obtained from the colon is compared with the control group (HFA mice).
# In other words, the material or the food is orally administered to HFA mice, which are autopsied along with control HFA mice not having been administered. The crypt cells of the colon are collected to separate RNA. Next, the separated RNA is amplified and Cy3 fluorescence material is labelled on the genes of HFA mice and Cy5 fluorescence material is labelled on the genes of the administered group to react with the gene chip which is a product of the present invention to get the difference of expressions of the 90 genes.
# RNA is collected and amplified from the crypt cells of the colon to manufacture a DNA chip, which is reacted with RNA of HFA mice being the control group. The degree of expressing genes and the change of composition of intestinal normal bacterial flora of the colon and the activity of the enzymes produced by the human intestinal bacterial flora such as glucuomidase, glucosidase, nitrate reductase and azoreductase are investigated and used as an index showing the disruption of the human intestinal normal bacterial flora.
substance,measurement,setting,value
colistin sulfate,"Disruption of the human intestinal normal bacterial flora, recovery after stop of administration",one week after stop,not recovered in one week after the administration of colistin is stopped
same,Number of genes in total showing a difference by more than 1.5 times in comparison with the control group,then halted one week,38 genes
same,Number of the 90 genes with the same tendency of increase and decrease as observed when the flora is disturbed,then halted one week,25 genes
same,1110037F02Rik gene expression HFA-Coli/HFA,[1],13.33
same,"1110037F02Rik gene expression, HFA-Coli",[1],133.2
same,1110038M16Rik gene expression HFA-Coli/HFA,[1],1.355
same,"1110038M16Rik gene expression, HFA-Coli",[1],195.8
same,1700012H17Rik gene expression HFA-Coli/HFA,[1],0.969
same,"1700012H17Rik gene expression, HFA-Coli",[1],594.0
same,2610529I12Rik gene expression HFA-Coli/HFA,[1],1.049
same,"2610529I12Rik gene expression, HFA-Coli",[1],1108
same,4732481h14Rik gene expression HFA-Coli/HFA,[1],0.750
same,"4732481h14Rik gene expression, HFA-Coli",[1],209.2
same,4930455F23Rik gene expression HFA-Coli/HFA,[1],0.851
same,"4930455F23Rik gene expression, HFA-Coli",[1],634.5
same,5031404N19 gene expression HFA-Coli/HFA,[1],0.956
same,"5031404N19 gene expression, HFA-Coli",[1],444.2
same,5430437F03Rik gene expression HFA-Coli/HFA,[1],1.826
same,"5430437F03Rik gene expression, HFA-Coli",[1],485.8
same,6330590F17Rik gene expression HFA-Coli/HFA,[1],1.341
same,"6330590F17Rik gene expression, HFA-Coli",[1],84.50
same,9830148O20Rik gene expression HFA-Coli/HFA,[1],1.400
same,"9830148O20Rik gene expression, HFA-Coli",[1],815.0
same,Alas1 gene expression HFA-Coli/HFA,[1],1.857
same,"Alas1 gene expression, HFA-Coli",[1],577.0
same,Aldh6a1 gene expression HFA-Coli/HFA,[1],0.971
same,"Aldh6a1 gene expression, HFA-Coli",[1],286.5
same,Au043625 gene expression HFA-Coli/HFA,[1],1.167
same,"Au043625 gene expression, HFA-Coli",[1],336.5
same,Bnip3l gene expression HFA-Coli/HFA,[1],1.753
same,"Bnip3l gene expression, HFA-Coli",[1],729.5
same,C130039O16 gene expression HFA-Coli/HFA,[1],1.160
same,"C130039O16 gene expression, HFA-Coli",[1],680.0
same,CPd gene expression HFA-Coli/HFA,[1],0.848
same,"CPd gene expression, HFA-Coli",[1],587.8
same,Cacnb3 gene expression HFA-Coli/HFA,[1],0.649
same,"Cacnb3 gene expression, HFA-Coli",[1],661.2
same,Cav gene expression HFA-Coli/HFA,[1],1.029
same,"Cav gene expression, HFA-Coli",[1],206.0
same,Ccnd2 gene expression HFA-Coli/HFA,[1],0.839
same,"Ccnd2 gene expression, HFA-Coli",[1],315.5
same,Cdc45l gene expression HFA-Coli/HFA,[1],1.652
same,"Cdc45l gene expression, HFA-Coli",[1],100.8
same,Cited1 gene expression HFA-Coli/HFA,[1],1.222
same,"Cited1 gene expression, HFA-Coli",[1],289.0
same,Ckap2 gene expression HFA-Coli/HFA,[1],1.661
same,"Ckap2 gene expression, HFA-Coli",[1],548.0
same,Cldn8 gene expression HFA-Coli/HFA,[1],1.195
same,"Cldn8 gene expression, HFA-Coli",[1],406.5
same,Col3a1 gene expression HFA-Coli/HFA,[1],2.136
same,"Col3a1 gene expression, HFA-Coli",[1],441.0
same,Cotl11 gene expression HFA-Coli/HFA,[1],1.883
same,"Cotl11 gene expression, HFA-Coli",[1],1227
same,Crem gene expression HFA-Coli/HFA,[1],0.890
same,"Crem gene expression, HFA-Coli",[1],355.8
same,Crsp7 gene expression HFA-Coli/HFA,[1],2.045
same,"Crsp7 gene expression, HFA-Coli",[1],1218
same,Cul4b gene expression HFA-Coli/HFA,[1],1.715
same,"Cul4b gene expression, HFA-Coli",[1],91.75
same,D230019K24Rik gene expression HFA-Coli/HFA,[1],2.598
same,"D230019K24Rik gene expression, HFA-Coli",[1],142.2
same,Daf1 gene expression HFA-Coli/HFA,[1],2.085
same,"Daf1 gene expression, HFA-Coli",[1],419.0
same,Dap3 gene expression HFA-Coli/HFA,[1],1.274
same,"Dap3 gene expression, HFA-Coli",[1],634.5
same,Dcamkl1 gene expression HFA-Coli/HFA,[1],0.679
same,"Dcamkl1 gene expression, HFA-Coli",[1],615.2
same,Ddx1 gene expression HFA-Coli/HFA,[1],1.094
same,"Ddx1 gene expression, HFA-Coli",[1],370.0
same,Eif2ak3 gene expression HFA-Coli/HFA,[1],1.274
same,"Eif2ak3 gene expression, HFA-Coli",[1],685.0
same,Epc1 gene expression HFA-Coli/HFA,[1],1.452
same,"Epc1 gene expression, HFA-Coli",[1],228.8
same,Fads3 gene expression HFA-Coli/HFA,[1],1.422
same,"Fads3 gene expression, HFA-Coli",[1],409.2
same,Fn3k gene expression HFA-Coli/HFA,[1],0.785
same,"Fn3k gene expression, HFA-Coli",[1],415.5
same,Gmnn gene expression HFA-Coli/HFA,[1],0.997
same,"Gmnn gene expression, HFA-Coli",[1],673.8
same,Gstm2 gene expression HFA-Coli/HFA,[1],0.944
same,"Gstm2 gene expression, HFA-Coli",[1],164.8
same,Guca1a gene expression HFA-Coli/HFA,[1],1.553
same,"Guca1a gene expression, HFA-Coli",[1],417.0
same,Hdac5 gene expression HFA-Coli/HFA,[1],0.949
same,"Hdac5 gene expression, HFA-Coli",[1],473.8
same,Hsd17b2 gene expression HFA-Coli/HFA,[1],1.453
same,"Hsd17b2 gene expression, HFA-Coli",[1],1737
same,Igj gene expression HFA-Coli/HFA,[1],0.888
same,"Igj gene expression, HFA-Coli",[1],210.5
same,Il16 gene expression HFA-Coli/HFA,[1],1.470
same,"Il16 gene expression, HFA-Coli",[1],568.0
same,Il18 gene expression HFA-Coli/HFA,[1],1.094
same,"Il18 gene expression, HFA-Coli",[1],531.5
same,Ipo4 gene expression HFA-Coli/HFA,[1],2.566
same,"Ipo4 gene expression, HFA-Coli",[1],140.5
same,Keap1 gene expression HFA-Coli/HFA,[1],0.687
same,"Keap1 gene expression, HFA-Coli",[1],564.0
same,Klf3 gene expression HFA-Coli/HFA,[1],0.764
same,"Klf3 gene expression, HFA-Coli",[1],195.8
same,Lnx1 gene expression HFA-Coli/HFA,[1],0.171
same,"Lnx1 gene expression, HFA-Coli",[1],98.25
same,Lrp10 gene expression HFA-Coli/HFA,[1],2.132
same,"Lrp10 gene expression, HFA-Coli",[1],1648
same,Mcpt4 gene expression HFA-Coli/HFA,[1],1.505
same,"Mcpt4 gene expression, HFA-Coli",[1],181.8
same,Mllt1 gene expression HFA-Coli/HFA,[1],0.781
same,"Mllt1 gene expression, HFA-Coli",[1],502.8
same,Mpp1 gene expression HFA-Coli/HFA,[1],0.874
same,"Mpp1 gene expression, HFA-Coli",[1],638.0
same,Mt-1 gene expression HFA-Coli/HFA,[1],3.610
same,"Mt-1 gene expression, HFA-Coli",[1],2033
same,Mtmr7 gene expression HFA-Coli/HFA,[1],2.084
same,"Mtmr7 gene expression, HFA-Coli",[1],173.0
same,Mut gene expression HFA-Coli/HFA,[1],1.238
same,"Mut gene expression, HFA-Coli",[1],999.5
same,Ncoa6 gene expression HFA-Coli/HFA,[1],3.070
same,"Ncoa6 gene expression, HFA-Coli",[1],374.5
same,Npm1 gene expression HFA-Coli/HFA,[1],1.840
same,"Npm1 gene expression, HFA-Coli",[1],350.0
same,Parva gene expression HFA-Coli/HFA,[1],1.330
same,"Parva gene expression, HFA-Coli",[1],153.0
same,Per1 gene expression HFA-Coli/HFA,[1],1.227
same,"Per1 gene expression, HFA-Coli",[1],803.5
same,Plp gene expression HFA-Coli/HFA,[1],1.232
same,"Plp gene expression, HFA-Coli",[1],2108
same,Prkrir gene expression HFA-Coli/HFA,[1],0.644
same,"Prkrir gene expression, HFA-Coli",[1],510.0
same,Ptgs1 gene expression HFA-Coli/HFA,[1],2.280
same,"Ptgs1 gene expression, HFA-Coli",[1],2454
same,Ptgs2 gene expression HFA-Coli/HFA,[1],1.721
same,"Ptgs2 gene expression, HFA-Coli",[1],423.8
same,Purb gene expression HFA-Coli/HFA,[1],2.438
same,"Purb gene expression, HFA-Coli",[1],527.8
same,Rab6ip1 gene expression HFA-Coli/HFA,[1],2.725
same,"Rab6ip1 gene expression, HFA-Coli",[1],203.0
same,Rgs12 gene expression HFA-Coli/HFA,[1],1.395
same,"Rgs12 gene expression, HFA-Coli",[1],152.8
same,Rhcg gene expression HFA-Coli/HFA,[1],1.572
same,"Rhcg gene expression, HFA-Coli",[1],286.5
same,Rnf12 gene expression HFA-Coli/HFA,[1],1.234
same,"Rnf12 gene expression, HFA-Coli",[1],72.50
same,Rpa1 gene expression HFA-Coli/HFA,[1],1.626
same,"Rpa1 gene expression, HFA-Coli",[1],353.8
same,Rpl27 gene expression HFA-Coli/HFA,[1],1.021
same,"Rpl27 gene expression, HFA-Coli",[1],1768
same,Rwl-pending gene expression HFA-Coli/HFA,[1],1.623
same,"Rwl-pending gene expression, HFA-Coli",[1],490.5
same,Serping1 gene expression HFA-Coli/HFA,[1],1.113
same,"Serping1 gene expression, HFA-Coli",[1],153.0
same,Sh3glb2 gene expression HFA-Coli/HFA,[1],1.081
same,"Sh3glb2 gene expression, HFA-Coli",[1],578.0
same,Siat9 gene expression HFA-Coli/HFA,[1],1.010
same,"Siat9 gene expression, HFA-Coli",[1],1439
same,Slc22a1l gene expression HFA-Coli/HFA,[1],1.054
same,"Slc22a1l gene expression, HFA-Coli",[1],1671
same,Slc26a1 gene expression HFA-Coli/HFA,[1],1.302
same,"Slc26a1 gene expression, HFA-Coli",[1],203.5
same,Srpk2 gene expression HFA-Coli/HFA,[1],0.480
same,"Srpk2 gene expression, HFA-Coli",[1],312.2
same,Tacc2 gene expression HFA-Coli/HFA,[1],2.279
same,"Tacc2 gene expression, HFA-Coli",[1],179.5
same,Tccr gene expression HFA-Coli/HFA,[1],0.821
same,"Tccr gene expression, HFA-Coli",[1],682.0
same,Tcl1 gene expression HFA-Coli/HFA,[1],1.688
same,"Tcl1 gene expression, HFA-Coli",[1],290.2
same,Tcp11 gene expression HFA-Coli/HFA,[1],1.222
same,"Tcp11 gene expression, HFA-Coli",[1],536.5
same,Thsd1 gene expression HFA-Coli/HFA,[1],1.373
same,"Thsd1 gene expression, HFA-Coli",[1],477.8
same,Tiam2 gene expression HFA-Coli/HFA,[1],7.565
same,"Tiam2 gene expression, HFA-Coli",[1],160.8
same,Tnfsf13b gene expression HFA-Coli/HFA,[1],2.153
same,"Tnfsf13b gene expression, HFA-Coli",[1],256.8
same,Tuba4 gene expression HFA-Coli/HFA,[1],1.623
same,"Tuba4 gene expression, HFA-Coli",[1],799.2
same,Ugcg gene expression HFA-Coli/HFA,[1],0.625
same,"Ugcg gene expression, HFA-Coli",[1],1158
same,Usp15 gene expression HFA-Coli/HFA,[1],1.355
same,"Usp15 gene expression, HFA-Coli",[1],85.00
same,Ybx2 gene expression HFA-Coli/HFA,[1],1.478
same,"Ybx2 gene expression, HFA-Coli",[1],164.8
same,Zdhhc3 gene expression HFA-Coli/HFA,[1],1.710
same,"Zdhhc3 gene expression, HFA-Coli",[1],357.8

# — patent US20120165223A1 (priority 2006, published 2012)
